Consider 2 compounds from PubChem BioAssay (NCI).

Among the test systems are IGROV1 ovarian; A498 renal; COLO 205 colon; DU-145 prostate; SW-620 colon; SNB-75 CNS; HL-60(TB) leukemia; OVCAR-8 ovarian; SK-OV-3 ovarian; HT29 colon.
Test in all cases: NCI tumour cell line growth inhibition, 48 h

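A five-concentration, 48-hour dose response in 96-well plates underlies each endpoint, interpolated linearly between surrounding concentrations. GI50 = concentration required for 50% inhibition of growth. Definition used: TGI = concentration required for complete inhibition of growth.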

In the case of `O=C1C=C(NCCO)c2nccc3c2c1nc1ccccc13`, the GI50 was 20.4 µM in the assay on IGROV1 ovarian; 38.2 µM with A498 renal; 14.8 µM in the assay on COLO 205 colon; 24.8 µM in the assay with DU-145 prostate; 15.5 µM in the assay on SW-620 colon; 49.7 µM in the assay on SNB-75 CNS. The GI50 in the assay on HL-60(TB) leukemia is 14.2 µM; with OVCAR-8 ovarian, 40 µM; in the assay on SK-OV-3 ovarian it was 80.1 µM; in the assay with HT29 colon it was 26.9 µM. For the same compound, the TGI with IGROV1 ovarian, in the assay on A498 renal, with COLO 205 colon, in the assay with DU-145 prostate, with SW-620 colon and in the assay with SNB-75 CNS was greater than 100 µM throughout. In addition, the TGI in the assay with HL-60(TB) leukemia, with OVCAR-8 ovarian, with SK-OV-3 ovarian and in the assay with HT29 colon was greater than 100 µM throughout.

As to `C[C@@H](Nc1cc(F)cc(F)c1)c1cc(C(=O)N(C)C)cc2c(=O)cc(N3CCOCC3)oc12`, the GI50 in the assay on IGROV1 ovarian was 0.73 µM; in the assay with COLO 205 colon, 7.09 µM; in the assay on DU-145 prostate, 33.1 µM; with SW-620 colon it was 25.1 µM; in the assay with SNB-75 CNS, 0.0398 µM; with HL-60(TB) leukemia, 2.17 µM. Besides, the GI50 in the assay on OVCAR-8 ovarian was 25.5 µM; in the assay on SK-OV-3 ovarian, 2.18 µM; with HT29 colon, 4.04 µM. The TGI was 11.1 µM with IGROV1 ovarian; less than 0.0203 µM with A498 renal; 51.1 µM in the assay on COLO 205 colon; greater than 100 µM in the assay with DU-145 prostate; greater than 100 µM in the assay on SW-620 colon; 3.64 µM with SNB-75 CNS. For the same compound, the TGI in the assay with HL-60(TB) leukemia was greater than 57.6 µM; in the assay on OVCAR-8 ovarian, greater than 100 µM; in the assay on SK-OV-3 ovarian, greater than 65.3 µM; in the assay on HT29 colon, greater than 100 µM.
